Our source for the GI50 and TGI values is PubChem BioAssay (NCI).

Common to all, as to experiment: NCI tumour cell line growth inhibition, 48 h
Assay [1] concerns 786-0 renal.
Assay [2] has as its system CAKI-1 renal.
For assay [3], the system named is EKVX NSCLC.
The test system of assay [4] is HCT-15 colon.
Assay [5] concerns IGROV1 ovarian.
Assay [6] deals with KM12 colon.
For assay [7], the system named is NCI-H460 lung.
Assay [8] deals with RXF 393 renal.
The test system of assay [9] is SF-268 CNS.
Assay [10] concerns SF-539 CNS.

Molecules are shown by their SMILES.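 Test compounds were applied to cells in 96-well plates for 48 hours at 5 doses. Here, GI50 denotes the concentration required for 50% inhibition of growth. The concentration for full growth arrest is given as TGI.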 A value given as a limit tells only on which side of the number the result lay.

Turning to `O=C(OCc1ccccc1)N1CCN(/[N+]([O-])=N/Oc2ccc([N+](=O)[O-])cc2[N+](=O)[O-])CC1`, the GI50 was 2.45 µM in assay [1]; 4.8 µM in assay [2]; 16.7 µM in assay [3]; 4.19 µM in [4]; 2.01 µM in assay [5]; 8.66 µM in [6]. In addition, the GI50 is 9.96 µM in assay [7], 29.2 µM in assay [8], 6.28 µM in assay [9] and 2.81 µM in assay [10]. Further, the TGI in [1] worked out at 6.97 µM; in assay [2] it was 15.9 µM; in assay [3], 35 µM; in [4], 52.6 µM; in assay [5] it was 23.2 µM; in assay [6] it was 24.2 µM. Further, the TGI was found to be 40.6 µM in assay [7], 56.5 µM in assay [8], 23.9 µM in [9] and 7.11 µM in [10].
As to `COc1cc2c(cc1OCCOS(C)(=O)=O)N=C[C@@H]1CCCN1C2=O`, the GI50 in assay [1] was 17 µM; in [2], 17.7 µM; in [4] it was 16.5 µM; in [10], 18.6 µM. In addition, the TGI in [1] was 30.7 µM; in assay [2], 32.1 µM; in [3], above 100 µM; in assay [4] it was 31.1 µM; in assay [5], 99.1 µM; in [6], above 100 µM. The TGI was above 100 µM in assay [7], above 100 µM in assay [8], above 100 µM in assay [9] and 47.2 µM in assay [10].
With `CN(C)c1ccc(/C=C(/NC(=O)c2ccccc2)c2nc3ccc(Cl)cc3[nH]2)cc1`, the TGI in assay [1] is above 100 µM; in assay [2], above 100 µM; in assay [3] it was above 100 µM; in assay [4], above 73.1 µM; in assay [5] it was above 100 µM; in assay [6] it was above 100 µM. Further, the TGI is above 100 µM in assay [7], above 93.9 µM in [8], above 100 µM in [9] and above 100 µM in assay [10].
For `O=C1OCC(c2cccs2)=C1Cl`, the GI50 in [1] is above 100 µM; in assay [2], above 100 µM; in assay [3] it was 40.5 µM; in assay [4], 74.2 µM; in [5], above 100 µM; in assay [6], 76.3 µM. In addition, the GI50 is 56.8 µM in assay [7], 53 µM in assay [8], above 100 µM in assay [9] and 23.2 µM in assay [10]. In addition, the TGI in [1], in assay [2], in assay [3], in [4], in assay [5] and in assay [6] was above 100 µM each time. Further, the TGI is above 100 µM in assay [7], above 100 µM in [8], above 100 µM in [9] and 86 µM in assay [10].
In the case of `O=S(O)CCCCCSSCCCCSSCCCCCS(=O)O`, the TGI in assay [1], in assay [2], in assay [3], in assay [4], in [5] and in assay [6] was above 100 µM each time. Besides, the TGI in [7], in assay [8], in assay [9] and in [10] was above 100 µM throughout.
As for `CN1CCCNc2c(c(=O)c2=O)NCCCN(C)CCCNc2c(c(=O)c2=O)NCCCN(C)CCCNc2c(c(=O)c2=O)NCCCN(C)CCCNc2c(c(=O)c2=O)NCCCN(C)CCCNc2c(c(=O)c2=O)NCCCN(C)CCCNc2c(c(=O)c2=O)NCCCN(C)CCCNc2c(c(=O)c2=O)NCCC1`, the GI50 in assay [1] was 4.29 µM; in assay [2], 6.14 µM; in [3] it was 5.54 µM; in assay [4], 5.19 µM; in assay [5], 3.13 µM; in assay [6], 3.63 µM. Further, the GI50 was 3.9 µM in assay [7], 2.54 µM in [8], 1.82 µM in [9] and 1.89 µM in assay [10]. For the same molecule, the TGI in assay [1] worked out at 15.1 µM; in [2], 13.1 µM; in [3] it was 15.8 µM; in [4] it was 22.5 µM; in assay [5], 23.8 µM; in assay [6] it was 18 µM. Further, the TGI in assay [7] is above 50 µM; in assay [8] it was 12.7 µM; in assay [9] it was 18.3 µM; in [10], 7.69 µM.
In the case of `C[C@]12CCC[C@H](Cl)C1(O)C[C@H](C(=O)O)CC2` (stereo partly drawn), the TGI in [1], in assay [2], in assay [3], in assay [4], in assay [5] and in [6] was above 100 µM in each case. The TGI in assay [7], in assay [8], in assay [9] and in assay [10] was above 100 µM each time.
On to `CC(=O)c1c(C(F)(F)F)n([O-])c2ccc(Cl)cc2[n+]1=O`, for which the GI50 was 0.0551 µM in assay [1]; 3.69 µM in assay [2]; 0.818 µM in [3]; 0.649 µM in [4]; 0.322 µM in [5]; 0.364 µM in assay [6]. For the same molecule, the GI50 in [7] is 0.0191 µM; in assay [8], 5.11 µM; in assay [9] it was 1.35 µM; in [10] it was 0.161 µM. In addition, the TGI in assay [1] was found to be 0.382 µM; in [2] it was 13.5 µM; in [3], 2.29 µM; in [4] it was 4.05 µM; in assay [6], 2.39 µM; in [7] it was 0.286 µM. Also, the TGI in assay [8] turned out to be 25.4 µM; in [9] it was 8.78 µM; in [10], 0.526 µM.
As to `CCN(CC)CCCNc1cccc2c(SCc3ccccc3)ccnc12`, the GI50 in [1] was 1.56 µM; in assay [2], 1.59 µM; in assay [3], 2.24 µM; in assay [4], 1.72 µM; in assay [5], 1.9 µM; in [6], 1.75 µM. For the same molecule, the GI50 in assay [7] was 1.7 µM; in [8], 1.87 µM; in [9], 1.51 µM; in assay [10] it was 1.63 µM. For the same molecule, the TGI in [1] turned out to be 2.99 µM; in assay [2] it was 3.21 µM; in assay [3] it was 6.71 µM; in assay [4], 3.82 µM; in assay [5] it was 3.75 µM; in assay [6], 3.38 µM. The TGI in assay [7] was 3.45 µM; in assay [8], 3.44 µM; in assay [9] it was 3.33 µM; in assay [10], 3.13 µM.
